Where two headings read alike, the source gives them in different places.
Tested on: compound-treated mice
Test: Neuropharmacological assay (SmartCube): behavioral activity signature and minimal effective dose
Assay type: in vivo
Conditions: for minimal effective dose: Mus musculus, ip, MED = dose having 50% or more total activity; for AD: ADHD (probability of activity signature) / AG: analgesic (probability of activity signature) / AX: anxiolytic (probability of activity signature) / CE: cognitive enhancer (probability of activity signature) / DP: anti-depressant (probability of activity signature) / MS: mood stabilizer (probability of activity signature) / PS: anti-psychotic (probability of activity signature) / SD: sedative hypnotic (probability of activity signature) / UN: uncharacterized CNS activity (probability of activity signature): i.p. 15 min before test, most efficacious dose(s)
Method in brief: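 Video-recorded behavior is compared algorithmically against a reference-compound database, yielding class probabilities (best dose reported). Compounds given i.p. in NMP/PEG/propylene glycol 15 min pre-test at 3 doses; potency as MED, the dose (mpk, range usually 0.3–30) reaching ≥50% total activity.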

[1] = read-out: Potency: minimal effective dose (MED)
[2] = read-out: Potency: minimal effective dose (MED), binned

SMILES | minimal effective dose [1] | AD: ADHD (probability of activity signature) | AG: analgesic (probability of activity signature) | AX: anxiolytic (probability of activity signature) | CE: cognitive enhancer (probability of activity signature) | DP: anti-depressant (probability of activity signature) | MS: mood stabilizer (probability of activity signature) | PS: anti-psychotic (probability of activity signature) | SD: sedative hypnotic (probability of activity signature) | UN: uncharacterized CNS activity (probability of activity signature) | minimal effective dose [2]
C[C@@H]1OCc2ccc(F)cc2[C@@H]1N.Cl [Example 88] | < 3 mg/kg | + (LOQ ≤ + <5%) | ++ (5% ≤ ++ <25%) | +++ (25% ≤ +++ <50%) | ++ (5% ≤ ++ <25%) | + (LOQ ≤ + <5%) | + (LOQ ≤ + <5%) | ++ (5% ≤ ++ <25%) | ++ (5% ≤ ++ <25%) | +++ (25% ≤ +++ <50%) | 
CN[C@H]1COCc2ccc(OC)cc21 [Example 140] | 10 to 30 mg/kg | + (LOQ ≤ + <5%) | ++ (5% ≤ ++ <25%) | ++ (5% ≤ ++ <25%) | ++ (5% ≤ ++ <25%) | ++ (5% ≤ ++ <25%) | ++ (5% ≤ ++ <25%) | +++ (25% ≤ +++ <50%) | + (LOQ ≤ + <5%) | + (LOQ ≤ + <5%) | 
CN[C@H]1COCc2ccc(Cl)c(Cl)c21 [Example 148] | 3 to 10 mg/kg | + (LOQ ≤ + <5%) | ++ (5% ≤ ++ <25%) | ++ (5% ≤ ++ <25%) | ++ (5% ≤ ++ <25%) | ++ (5% ≤ ++ <25%) | ++ (5% ≤ ++ <25%) | ++ (5% ≤ ++ <25%) | ++ (5% ≤ ++ <25%) | +++ (25% ≤ +++ <50%) | 
Cl.NC1COCCc2ccccc21 (stereo not drawn) [Example 30] | > 30 mg/kg | + (LOQ ≤ + <5%) | ++ (5% ≤ ++ <25%) | + (LOQ ≤ + <5%) | + (LOQ ≤ + <5%) | + (LOQ ≤ + <5%) | + (LOQ ≤ + <5%) | + (LOQ ≤ + <5%) | + (LOQ ≤ + <5%) | + (LOQ ≤ + <5%) | 
C[C@H]1OC[C@@H](N)c2cc(F)ccc21.Cl [Example 205] |  | + (LOQ ≤ + <5%) | + (LOQ ≤ + <5%) | +++ (25% ≤ +++ <50%) | ++ (5% ≤ ++ <25%) | ++ (5% ≤ ++ <25%) | + (LOQ ≤ + <5%) | ++ (5% ≤ ++ <25%) | ++ (5% ≤ ++ <25%) | +++ (25% ≤ +++ <50%) | 3 to 10 mg/kg
CCN(C)C(=O)Oc1ccc2c(c1)CO[C@H](C)[C@H]2N.Cl [Example 280] |  | + (LOQ ≤ + <5%) | + (LOQ ≤ + <5%) | + (LOQ ≤ + <5%) | ++ (5% ≤ ++ <25%) | ++ (5% ≤ ++ <25%) | ++ (5% ≤ ++ <25%) | + (LOQ ≤ + <5%) | ++ (5% ≤ ++ <25%) | + (LOQ ≤ + <5%) | 3 to 10 mg/kg
Cc1ccc2c(c1)CO[C@@H](C)[C@H]2N.Cl [Example 95] | < 3 mg/kg | + (LOQ ≤ + <5%) | ++ (5% ≤ ++ <25%) | ++ (5% ≤ ++ <25%) | ++ (5% ≤ ++ <25%) | ++ (5% ≤ ++ <25%) | + (LOQ ≤ + <5%) | +++ (25% ≤ +++ <50%) | + (LOQ ≤ + <5%) | +++ (25% ≤ +++ <50%) | 
Cc1ccc2c(c1)CO[C@@H](C)[C@H]2N [Example 189] |  | + (LOQ ≤ + <5%) | ++ (5% ≤ ++ <25%) | ++ (5% ≤ ++ <25%) | ++ (5% ≤ ++ <25%) | ++ (5% ≤ ++ <25%) | + (LOQ ≤ + <5%) | ++ (5% ≤ ++ <25%) | + (LOQ ≤ + <5%) | +++ (25% ≤ +++ <50%) | 10 to 30 mg/kg
C[C@H]1OCc2ccc(F)cc2[C@@H]1N.Cl [Example 89] | < 3 mg/kg | + (LOQ ≤ + <5%) | ++ (5% ≤ ++ <25%) | ++ (5% ≤ ++ <25%) | ++ (5% ≤ ++ <25%) | + (LOQ ≤ + <5%) | + (LOQ ≤ + <5%) | ++ (5% ≤ ++ <25%) | ++ (5% ≤ ++ <25%) | ++++ (50% ≤ ++++) | 
CCCN[C@@H]1COCc2ccccc21.Cl [Example 262] |  | + (LOQ ≤ + <5%) | + (LOQ ≤ + <5%) | + (LOQ ≤ + <5%) | + (LOQ ≤ + <5%) | ++ (5% ≤ ++ <25%) | + (LOQ ≤ + <5%) | + (LOQ ≤ + <5%) | ++ (5% ≤ ++ <25%) | ++ (5% ≤ ++ <25%) | 10 to 30 mg/kg
CC[C@@H]1OCc2ccccc2[C@@H]1N (single isomer, unassigned) [Example 191] |  | + (LOQ ≤ + <5%) | ++ (5% ≤ ++ <25%) | ++ (5% ≤ ++ <25%) | ++ (5% ≤ ++ <25%) | ++ (5% ≤ ++ <25%) | + (LOQ ≤ + <5%) | ++ (5% ≤ ++ <25%) | ++ (5% ≤ ++ <25%) | ++++ (50% ≤ ++++) | < 3 mg/kg
CC1(C)OCc2ccccc2C1N.Cl (stereo not drawn) [Example 101, 3,3-Dimethylisochroman-4-amine hydrochloride] | 10 to 30 mg/kg | + (LOQ ≤ + <5%) | ++ (5% ≤ ++ <25%) | +++ (25% ≤ +++ <50%) | + (LOQ ≤ + <5%) | ++ (5% ≤ ++ <25%) | + (LOQ ≤ + <5%) | ++ (5% ≤ ++ <25%) | ++ (5% ≤ ++ <25%) | + (LOQ ≤ + <5%) | 
Cl.NC1COCc2cc(F)ccc21 (stereo not drawn) [Example 3] | 10 to 30 mg/kg | + (LOQ ≤ + <5%) | ++ (5% ≤ ++ <25%) | ++ (5% ≤ ++ <25%) | + (LOQ ≤ + <5%) | ++ (5% ≤ ++ <25%) | + (LOQ ≤ + <5%) | + (LOQ ≤ + <5%) | ++ (5% ≤ ++ <25%) | +++ (25% ≤ +++ <50%) | 
COc1cccc2c1C(N)COC2.Cl (stereo not drawn) [Example 25] | 10 to 30 mg/kg | + (LOQ ≤ + <5%) | ++ (5% ≤ ++ <25%) | ++ (5% ≤ ++ <25%) | ++ (5% ≤ ++ <25%) | ++ (5% ≤ ++ <25%) | + (LOQ ≤ + <5%) | ++ (5% ≤ ++ <25%) | + (LOQ ≤ + <5%) | +++ (25% ≤ +++ <50%) | 
C[C@H]1OCc2c(F)cccc2[C@@H]1N.Cl [Example 214] |  | ++ (5% ≤ ++ <25%) | ++ (5% ≤ ++ <25%) | ++ (5% ≤ ++ <25%) | ++ (5% ≤ ++ <25%) | ++ (5% ≤ ++ <25%) | + (LOQ ≤ + <5%) | ++ (5% ≤ ++ <25%) | ++ (5% ≤ ++ <25%) | ++++ (50% ≤ ++++) | 3 to 10 mg/kg

— patent US11077090B2, “Compounds and compositions and uses thereof” (Sunovion Pharmaceuticals Inc., priority 2016, dated 2021)
